# Earlier results in patent US20070225367A1, “Composition for beneficially influencing Alzheimer's disease and/or for Alzheimer's prophylaxis” (Clariant International Ltd, priority 2006, published 2007).
# Legend:
# β-amyloid aggregation = β-amyloid aggregation (Homo sapiens, UniProt P05067); details: in vitro
# β-amyloid levels = details: oral administration, APP transgenic mice
# Sequence of β-amyloid aggregation (P05067 672-713 limits assumed): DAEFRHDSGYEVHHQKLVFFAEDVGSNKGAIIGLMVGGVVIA
smiles,measurement,setting,value
[Cu] [copper],effect on β-amyloid aggregation,β-amyloid aggregation,inhibitory effect
same,β-amyloid levels,β-amyloid levels,reduced
